Assay results as given in PubChem BioAssay AID1159560 (GlaxoSmithKline (GSK), 2015).
The source made the active and inactive calls. The rule behind the calls is not given here.

tested on: Leishmania donovani growth inhibition; assay: antileishmanial activity against L. donovani parasites (AID 1159560);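 note: parasites exposed to compound for 72 h before the viability read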

SMILES	IC50
COc1cc(C2SCC(=O)Nc3c2c(C)nn3-c2nc3ccccc3s2)cc(OC)c1O (stereo unspecified)	6.3 µM
CC(=O)NCCNc1cc(-c2ccnc(Nc3cccc(Cl)c3)n2)ccn1	0.32 µM
COc1cc(F)c2ncc(F)c(CCN3CC[C@H](NCc4cc5c(cn4)OCS5)[C@@H](O)C3)c2c1	25 µM
CCN(CC)c1nc(Nc2ccncc2)nc2ccccc12	0.79 µM
Cc1nc(N2CC(C)OC(C)C2)sc1C(=O)Nc1ccc2c(c1)OCO2 (stereo unspecified)	6.3 µM
COc1cc(OC)cc(C(NS(=O)(=O)c2ccc(Cl)c(C(F)(F)F)c2)c2nccn2C)c1 (stereo unspecified)	10 µM
CCC(CC)C(=O)Nc1cccc(C(=O)Nc2nnc(C3CCCCC3)s2)c1	> 50 µM (inactive)
Cn1ccnc1-c1nc(NCc2ccccc2Cl)cc(C2CC2)n1	1.6 µM
CS(=O)(=O)c1cccc(CNC(=O)c2cncc(N3CCN(c4ccc(F)cc4)CC3)c2)c1	> 50 µM (inactive)
COc1ccccc1-c1c(C)[nH]c2nc(N)nc(C)c12	13 µM
Cc1ccccc1CNC(=O)CN(Cc1ccccn1)Cc1ccccn1	10 µM
COc1ccc(-c2cnc(NC(=O)c3cc(-c4ccccn4)n[nH]3)n2C)cc1	4 µM
CC(=O)NC1(c2ccccc2)CCN(CC(=O)Nc2ccccc2-c2ccccc2)CC1	20 µM
COc1cccc(C(=O)[C@H]2C[C@@H]2CN(Cc2cccnc2)Cc2cccnc2)c1	0.16 µM
CC1CN(Cc2ccc(C#N)cc2)CCN1c1ccc(NC(=O)c2ccccc2F)cc1 (stereo unspecified)	40 µM
COc1cc(Nc2nccc(Nc3onc(C)c3C)n2)cc(S(=O)(=O)C2CCOCC2)c1	40 µM
c1ccc(-c2nc(NC3CCCCC3)cc(C3CC3)n2)nc1	0.79 µM
Cc1nc2c(-c3cccs3)c(C)nn2c(NCCO)c1C	> 50 µM (inactive)
COc1ccc(C2C3CCCCC3(O)CCN2CC(=O)Nc2ccc(Cl)cc2Cl)cc1 (stereo unspecified)	1.6 µM
CCS(=O)(=O)c1cccc(C(=O)Nc2nc(-c3ccccn3)cs2)c1	1.3 µM
Cc1ccc2sc(NC(=O)Cn3cnc([N+](=O)[O-])n3)nc2c1	> 50 µM (inactive)

SMILES	IC50
CN(C)c1ncc(-c2cncn2CCOc2ccc(Cl)cc2)cn1	> 50 µM (inactive)
Cc1cc(NC(=O)C2CCCCC2)n(-c2nc3c(c(=O)[nH]2)CCC3)n1	0.04 µM
CC(C)c1cc(Nc2cc(Cc3ccccc3)nc(NC3CCC(O)CC3)n2)n[nH]1 (stereo unspecified)	3.2 µM
O=C(Nc1cccc(S(=O)(=O)Nc2ccc(Br)cc2)c1)c1ccc([N+](=O)[O-])s1	0.79 µM
Cc1nn(-c2nc3ccccc3s2)c2c1C(c1ccc(OCC(N)=O)cc1)SCC(=O)N2 (stereo unspecified)	> 50 µM (inactive)
O=C(CN1CCN(S(=O)(=O)c2cccc([N+](=O)[O-])c2)CC1)Nc1ccc(Oc2ccccc2)cc1	4 µM
O=C(NCCc1cccnc1)c1ccc(-c2ccccc2F)o1	20 µM
O=C(Nc1ccc(Br)cn1)c1ccc(Cn2cnc([N+](=O)[O-])n2)cc1	> 50 µM (inactive)
Cc1ccc(S(=O)(=O)Cn2nnnc2C(c2cccnc2)N2CCN(c3ccccc3)CC2)cc1 (stereo unspecified)	1 µM
N#Cc1cnc(Nc2cccc(CCN3CCOCC3)c2)nc1Nc1ccccc1C(N)=O	2.5 µM
O=C(c1cnn(-c2ccccc2)n1)N1CCCC(n2ccnc2)C1 (stereo unspecified)	7.9 µM
CC(C)(C)C(O)(CCc1ccc(Cl)cc1)Cn1cncn1 (stereo unspecified)	3.2 µM
O=C(CCCNC(=O)c1ccc(Cl)cc1)Nc1nc(-c2ccccn2)cs1	> 50 µM (inactive)
O=C1CN(C2CCCc3c(OCc4ccncc4)cccc32)C(=O)N1C1CCCCC1 (stereo unspecified)	> 50 µM (inactive)
Cc1ccc(C)c(CN2C(=O)NC3(CCc4ccccc43)C2=O)c1 (stereo unspecified)	> 50 µM (inactive)
Clc1ccc(C(CC2CCCCO2)Cn2cncn2)c(Cl)c1 (stereo unspecified)	25 µM
O=C(NCC1CCCCN1C(=O)c1cccc2ccccc12)c1ccccc1 (stereo unspecified)	> 50 µM (inactive)
Nc1nc(-c2ccccn2)nc(N)c1Cc1c(F)cccc1Cl	2.5 µM
CC(=Cc1ccccc1)CN1CCC(=O)N(Cc2cccnc2)CC1	> 50 µM (inactive)
Cc1cc(C)n(-c2nc(NC(C)C)nc(NC(C)(C)C)n2)n1	3.2 µM
